Experiments:
NHE3 [1] = target: T1, NHE3 (Homo sapiens, UniProt P48764); assay: Cell-based assay of NHE-3 activity (pre-incubation inhibition), human; conditions: human Preincubation; for pIC50: 0-30 μM test compound
T1 construct: expressed in transfected cells
T1 sequence (P48764 26-834): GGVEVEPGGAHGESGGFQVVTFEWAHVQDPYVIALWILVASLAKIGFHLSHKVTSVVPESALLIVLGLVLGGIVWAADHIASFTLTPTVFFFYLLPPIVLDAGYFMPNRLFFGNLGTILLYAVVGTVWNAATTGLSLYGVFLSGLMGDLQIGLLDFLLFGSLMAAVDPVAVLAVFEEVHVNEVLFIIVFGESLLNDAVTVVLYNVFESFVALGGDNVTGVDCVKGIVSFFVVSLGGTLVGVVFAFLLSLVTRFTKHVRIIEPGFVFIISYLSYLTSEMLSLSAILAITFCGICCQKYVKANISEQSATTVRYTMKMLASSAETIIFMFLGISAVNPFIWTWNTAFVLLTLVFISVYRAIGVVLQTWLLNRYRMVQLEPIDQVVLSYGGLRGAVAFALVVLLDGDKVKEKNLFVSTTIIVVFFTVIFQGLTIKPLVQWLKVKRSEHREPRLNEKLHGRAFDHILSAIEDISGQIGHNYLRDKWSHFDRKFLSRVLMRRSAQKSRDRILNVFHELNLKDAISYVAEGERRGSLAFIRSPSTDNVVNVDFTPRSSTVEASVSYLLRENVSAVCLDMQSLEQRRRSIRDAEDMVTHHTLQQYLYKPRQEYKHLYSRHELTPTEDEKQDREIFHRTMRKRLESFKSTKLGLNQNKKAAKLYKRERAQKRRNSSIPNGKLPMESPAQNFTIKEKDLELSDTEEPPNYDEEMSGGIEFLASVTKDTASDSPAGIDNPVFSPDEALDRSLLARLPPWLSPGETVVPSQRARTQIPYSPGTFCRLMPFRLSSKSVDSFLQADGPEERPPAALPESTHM
T1 sequence (Q99653 2-195 partner limits assumed): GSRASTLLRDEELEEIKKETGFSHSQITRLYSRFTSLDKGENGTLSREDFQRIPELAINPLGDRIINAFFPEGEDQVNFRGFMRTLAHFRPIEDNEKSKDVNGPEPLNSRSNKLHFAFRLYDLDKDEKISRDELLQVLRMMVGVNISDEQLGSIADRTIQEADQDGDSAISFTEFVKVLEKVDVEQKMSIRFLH
Summary of the method: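 PS120 fibroblasts stably expressing human NHE3 and NHERF2, loaded 30 min at 37 °C with 5 μM BCECF-AM in NH4Cl buffer, then acidified 10 min at room temperature in Na+-free buffer with 0–30 μM compound. Initial rate of BCECF fluorescence ratio change (FLIPR) per minute taken as Na+/H+ activity.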

NHE3 [2] = target: T1, NHE3; assay: Cell-based assay of NHE-3 activity (persistent inhibition), human; conditions: human Persistence, 60 min incubation then washout
Summary of the method: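 PS120 fibroblasts expressing human NHE3 with NHERF2 exposed to 0-30 μM compound for 60 min at RT, then washed out; cells acid-loaded by NH4Cl prepulse with BCECF-AM and Na+-free buffer. Na+-driven pH recovery started 10 min post-washout; initial rate of BCECF ratio change (FLIPR) taken as activity.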

N[C@@H]1CCCN([C@H]2Cc3c(Cl)cc(Cl)cc3[C@@H]2Oc2ccc(S(=O)(=O)NCCOCCOCCNC(=O)NCCCCNC(=O)NCCOCCOCCNS(=O)(=O)c3ccc(O[C@H]4c5cc(Cl)cc(Cl)c5C[C@@H]4N4CCC[C@@H](N)C4)cc3Cl)c(Cl)c2)C1 [Example 104]
% inhibition (NHE3 [1]): C (>70%) | pIC50 (NHE3 [1]): C (NHE3 pIC50 > 7) | % inhibition (NHE3 [2]): C (>70%) | pIC50 (NHE3 [2]): C (NHE3 pIC50 > 7)

Cc1cc(S(=O)(=O)NCCOCCOCCNC(=O)NCCCCNC(=O)NCCOCCOCCNS(=O)(=O)c2ccc(O[C@H]3c4cc(Cl)cc(Cl)c4C[C@@H]3N3CCN(C(=O)N(C)C)CC3)c(C)c2)ccc1O[C@H]1c2cc(Cl)cc(Cl)c2C[C@@H]1N1CCN(C(=O)N(C)C)CC1 [Example 77, 4-[(1S,2S)-4,6-dichloro-1-[4-[(2-[2-[2-([[4-([[2-(2-[2-[(4-[[(1S,2S)-4,6-dichloro-2-[4-(dimethylcarbamoyl)piperazin-1-yl]-2,3-dihydro-1H-inden-1-yl]oxy]-3-methylbenzene)sulfonamido]ethoxy]ethoxy)ethyl]carbamoyl]amino)butyl]carbamoyl]amino)ethoxy]ethoxy]ethyl)sulfamoyl]-2-methylphenoxy]-2,3-dihydro-1H-inden-2-yl]-N,N-dimethylpiperazine-1-carboxamide; bis(trifluoroacetic acid)]
% inhibition (NHE3 [1]): C (>70%) | pIC50 (NHE3 [1]): A (NHE3 pIC50 < 6) | % inhibition (NHE3 [2]): A (NHE3 < 40%) | pIC50 (NHE3 [2]): A (NHE3 pIC50 < 6)

Cc1cc(S(=O)(=O)N[C@@H]2CCN(CCOCCNC(=O)NCCCCNC(=O)NCCOCCN3CC[C@@H](NS(=O)(=O)c4ccc(O[C@H]5c6cc(Cl)cc(C)c6C[C@@H]5N5CCC[C@@H](N(C)C)C5)c(C)c4)C3)C2)ccc1O[C@H]1c2cc(Cl)cc(C)c2C[C@@H]1N1CCC[C@@H](N(C)C)C1 [Example 113, 4-([(1S,2S)-6-Chloro-2-[(R)-3-(dimethylamino)piperidin-1-yl]-4-methyl-2,3-dihydro-1H-inden-1-yl]oxy)-N—[(R)-1-(20-[(R)-3-([4-([(1S,2S)-6-chloro-2-[(R)-3-(dimethylamino)piperidin-1-yl]-4-methyl-2,3-dihydro-1H-inden-1-yl]oxy)-3-methylphenyl]sulfonamido)pyrrolidin-1-yl]-7,14-dioxo-3,18-dioxa-6,8,13,15-tetraazaicosyl)pyrrolidin-3-yl]-3-methylbenzenesulfonamide; tetra(trifluoroacetate)]
% inhibition (NHE3 [1]): C (>70%) | pIC50 (NHE3 [1]): C (NHE3 pIC50 > 7) | % inhibition (NHE3 [2]): C (>70%) | pIC50 (NHE3 [2]): C (NHE3 pIC50 > 7)

Cc1cc(O[C@H]2c3cc(Cl)cc(Cl)c3C[C@@H]2N2CCC[C@@H](N)C2)ccc1S(=O)(=O)NCCOCCOCCNC(=O)NCCCCNC(=O)NCCOCCOCCNS(=O)(=O)c1ccc(O[C@H]2c3cc(Cl)cc(Cl)c3C[C@@H]2N2CCC[C@@H](N)C2)cc1C [Example 102, 3-[2-(2-[2-[(4-[[(1S,2S)-2-[(3R)-3-Aminopiperidin-1-yl]-4,6-dichloro-2,3-dihydro-1H-inden-1-yl]oxy]-2-methylbenzene)sulfonamido]ethoxy]ethoxy)ethyl]-1-[4-([[2-(2-[2-[(4-[[(1S,2S)-2-[(3R)-3-aminopiperidin-1-yl]-4,6-dichloro-2,3-dihydro-1H-inden-1-yl]oxy]-2-methylbenzene)sulfonamido]ethoxy]ethoxy)ethyl]carbamoyl]amino)butyl]urea]
% inhibition (NHE3 [1]): C (>70%) | pIC50 (NHE3 [1]): C (NHE3 pIC50 > 7) | % inhibition (NHE3 [2]): C (>70%) | pIC50 (NHE3 [2]): C (NHE3 pIC50 > 7)

CN(C)[C@H]1Cc2c(cc(Cl)cc2C(F)(F)F)[C@@H]1Oc1ccc(S(=O)(=O)NCCOCCOCCNC(=O)NCCCCNC(=O)NCCOCCOCCNS(=O)(=O)c2ccc(O[C@H]3c4cc(Cl)cc(C(F)(F)F)c4C[C@@H]3N(C)C)cc2)cc1 [Example 13, 3-[2-(2-[2-[(4-[[(1S,2S)-6-Chloro-2-(dimethylamino)-4-(trifluoromethyl)-2,3-dihydro-1H-inden-1-yl]oxy]benzene)sulfonamido]ethoxy]ethoxy)ethyl]-1-[4-([[2-(2-[2-[(4-[[(1S,2S)-6-chloro-2-(dimethylamino)-4-(trifluoromethyl)-2,3-dihydro-1H-inden-1-yl]oxy]benzene)sulfonamido]ethoxy]ethoxy)ethyl]carbamoyl]amino)butyl]urea]
% inhibition (NHE3 [1]): A (NHE3 < 40%) | % inhibition (NHE3 [2]): A (NHE3 < 40%)

Cc1cc(S(=O)(=O)NCCOCCOCCNC(=O)NCCCCNC(=O)NCCOCCOCCNS(=O)(=O)c2cc(C)c(O[C@H]3c4cc(Cl)cc(Cl)c4C[C@@H]3N3CCC[C@@H](N)C3)cc2F)c(F)cc1O[C@H]1c2cc(Cl)cc(Cl)c2C[C@@H]1N1CCC[C@@H](N)C1 [Example 89, 3-[2-(2-[2-[(4-[[(1S,2S)-2-[(3R)-3-Aminopiperidin-1-yl]-4,6-dichloro-2,3-dihydro-1H-inden-1-yl]oxy]-2-fluoro-5-methylbenzene)sulfonamido]ethoxy]ethoxy)ethyl]-1-[4-([[2-(2-[2-[(4-[[(1S,2S)-2-[(3R)-3-aminopiperidin-1-yl]-4,6-dichloro-2,3-dihydro-1H-inden-1-yl]oxy]-2-fluoro-5-methylbenzene)sulfonamido]ethoxy]ethoxy)ethyl]carbamoyl]amino)butyl]urea; bis(trifluoroacetic acid)]
% inhibition (NHE3 [1]): C (>70%) | % inhibition (NHE3 [2]): C (>70%)

CN(C)[C@H]1Cc2c(Cl)cc(Cl)cc2[C@@H]1Oc1ccc(S(=O)(=O)NCCCCCCCCNC(=O)NCCCCNC(=O)NCCCCCCCCNS(=O)(=O)c2ccc(O[C@H]3c4cc(Cl)cc(Cl)c4C[C@@H]3N(C)C)cc2)cc1 [Example 64, 3-[8-[(4-[[(1S,2S)-4,6-Dichloro-2-(diamethylamino)-2,3-dihydro-1H-inden-1-yl]oxy]benzene)sulfonamido]octyl]-1-[4-[([8-[(4-[[(1S,2S)-4,6-dichloro-2-(diamethylamino)-2,3-dihydro-1H-inden-1-yl]oxy]benzene)sulfonamido]octyl]carbamoyl)amino]butyl]urea; bis(trifluoroacetic acid)]
% inhibition (NHE3 [1]): A (NHE3 < 40%) | % inhibition (NHE3 [2]): A (NHE3 < 40%)

Cc1cc(S(=O)(=O)N2CC[C@H](COc3ccnc(CNC(=O)NCCCCNC(=O)NCc4cc(OC[C@H]5CCN(S(=O)(=O)c6ccc(O[C@H]7c8cc(Cl)cc(C#N)c8C[C@@H]7N(C)C)c(C)c6)C5)ccn4)c3)C2)ccc1O[C@H]1c2cc(Cl)cc(C#N)c2C[C@@H]1N(C)C [Example 50]
% inhibition (NHE3 [1]): B (40-70%) | pIC50 (NHE3 [1]): C (NHE3 pIC50 > 7) | % inhibition (NHE3 [2]): B (40-70%) | pIC50 (NHE3 [2]): C (NHE3 pIC50 > 7)

Cc1cc(S(=O)(=O)NCCCCCCCCNC(=O)NCCCCNC(=O)NCCCCCCCCNS(=O)(=O)c2ccc(O[C@H]3c4cc(Cl)cc(Cl)c4C[C@@H]3N(C)C)c(C)c2)ccc1O[C@H]1c2cc(Cl)cc(Cl)c2C[C@@H]1N(C)C [Example 65, 3-[8-[(4-[[(1S,2S)-4,6-Dichloro-2-(dimethylamino)-2,3-dihydro-1H-inden-1-yl]oxy]-3-methylbenzene)sulfonamido]octyl]-1-[4-[([8-[(4-[[(1S,2S)-4,6-dichloro-2-(dimethylamino)-2,3-dihydro-1H-inden-1-yl]oxy]-3-methylbenzene)sulfonamido]octyl]carbamoyl)amino]butyl]urea]
% inhibition (NHE3 [1]): A (NHE3 < 40%) | % inhibition (NHE3 [2]): A (NHE3 < 40%)

N[C@@H]1CCCN([C@H]2Cc3c(Cl)cc(Cl)cc3[C@@H]2Oc2ccc(S(=O)(=O)NCCOCCOCCNC(=O)NCCCCNC(=O)NCCOCCOCCNS(=O)(=O)c3ccc(O[C@H]4c5cc(Cl)cc(Cl)c5C[C@@H]4N4CCC[C@@H](N)C4)c(F)c3)cc2F)C1 [Example 2]
% inhibition (NHE3 [1]): C (>70%) | % inhibition (NHE3 [2]): C (>70%)
